According to patent publication US11576911B2, “Composition and method for treatment of depression and psychosis in humans” (Glytech LLC, priority 2012, dated 2023):

Assays:
Male C57Bl/6J mice [1] = assay: Elevated plus maze (EPM), DOI 2 mg/kg in all conditions; assay type: in vivo; details: for Distance Traveled Open (DTO) Mean / Percent open (PCT) Mean: Table 1; for Effect on distance travelled in open arm / % time in open arm of EPM, in words: agent alone vs control, doses of Tables 1 and 2; for Effect on open arm behavior in the EPM, in words: non-competitive NMDAR antagonist with MDL100907 .3 mg/kg (Table 1 lines 8,9); for Total distance travelled in the EPM, in words: with MDL100907 .3 mg/kg (Table 1 lines 8,9); for Reversal of 5-HT2A antagonist induced reductions in open arm measures of the EPM, in words: NMDAR antagonists, summary of Example 1; for DTO Mean / PCT Mean: Table 2; for Mean distance travelled in the open arm of the EPM: Table 6, DOI 2 mg/kg added; for Distance travelled in the open arm relative to the vehicle, in words: Table 6 doses, DOI 2 mg/kg added in all conditions
Male BalbC/J mice = assay: Rodent forced swim test (FST), immobility time; assay type: in vivo; design: key to Mean immobility time in the rodent forced swim test (FST): seconds of immobility over the 6-min test; details: for Mean immobility time in the rodent forced swim test (FST): Table 5; for Effect on immobility in the FST, in words: at indicated doses of Table 5; for immobility time in the rodent forced swim test (FST), Mean: Table 3
Text: Male BalbC/J mice (8 weeks old) from Jackson Laboratories (Bar Harbor, Me.) were used. Upon receipt, mice were assigned unique identification numbers (tail marked) and were group housed in OPTImice cages. All animals were acclimated to the colony room for 1 week prior to testing. During the period of acclimation, animals were examined on a regular basis, handled, and weighed to assure adequate health and suitability. Animals were maintained on a 12/12 light/dark cycle. The room temperature was maintained between 20 and 23° C. with a relative humidity maintained between 30% and 70%. Chow and water were provided ad libitum for the duration of the study. All testing was performed during the animal's light cycle phase.
Mice were acclimated to the test room at least 1 hour prior to commencing the test. The forced swimming test consisted of one 6-minute session of forced swimming in individual opaque cylinders (15 cm tall×10 cm wide, 1000 ml beakers) containing fresh tap water at a temperature of 23±2° C. and a depth of 12 cm (approximately 800 ml) for each test animal. The time the animal spent immobile was recorded over the 6 min trial. Every 1 min the cumulative immobility time was recorded from the start of the session and noted on the study data record sheet. Immobility was defined as the postural position of floating in the water. The animals were generally observed with the back slightly hunched and the head above water with no movements or with small stabilizing movements of the limbs. After the swim test, each animal was placed in a pre-heated cage with a heating pad and allowed to dry.
The main variable used to represent immobility in this test was the total time immobile during the 6-min test period. Statistics were performed by analysis of variance (ANOVA) with Dunnett post-hoc testing vs. the control condition or by t-test as appropriate.
Sertraline, a known antidepressant, is used as a positive control.
For this study, further NMDAR antagonist compounds were tested for their ability to reduce immobility time in the rodent FST test, indicative of potential anti-depressant effects, and further 5-HT2AR antagonists were tested for their ability to produce reductions of time spent in the open arms of the EPM, indicative to potential liability to induce anxiety, akathisia and suicidality in humans

Male C57Bl/6J mice [2] = details: selective 5-HT2A antagonist alone; previously demonstrated (U.S. Pat. No. 9,846,453); cited from earlier work

## CNC1(c2ccccc2Cl)CCCCC1=O (racemic) [ketamine, (R,S)-2-(2-Chlorphenyl)-2-(methylamino)cyclohexan-1-on]
Male C57Bl/6J mice [1]; 10 mg/kg ip alone
  Distance Traveled Open (DTO) Mean: 194.5
  Percent open (PCT) Mean: 40.3%
Male C57Bl/6J mice [1]
  Effect on distance travelled in open arm / % time in open arm of EPM, in words: does not significantly alter either distance traveled in the open arm or % time in the open arm
  Effect on open arm behavior in the EPM, in words: did not significantly affect open arm behavior
  Total distance travelled in the EPM, in words: reduced total distance travelled

## O=C(O)[C@H]1C[C@@H](CP(=O)(O)O)CCN1 (relative stereo) [CGS-19755, cis-4-(phosphonomethyl)-2-piperidinecarboxylic acid]
Male C57Bl/6J mice [1]
  Reversal of 5-HT2A antagonist induced reductions in open arm measures of the EPM, in words: Pro-therapeutic effects
Male BalbC/J mice; 0.03 mg/kg
  Mean immobility time in the rodent forced swim test (FST): 125.60
Male BalbC/J mice; 0.1 mg/kg
  Mean immobility time in the rodent forced swim test (FST): 144.30
Male BalbC/J mice; 0.3 mg/kg
  Mean immobility time in the rodent forced swim test (FST): 120.00
Male BalbC/J mice; 1.0 mg/kg
  Mean immobility time in the rodent forced swim test (FST): 137.20
Male BalbC/J mice; 3.0 mg/kg
  Mean immobility time in the rodent forced swim test (FST): 154.90
Male BalbC/J mice; 10 mg/kg
  Mean immobility time in the rodent forced swim test (FST): 114.70
Male BalbC/J mice
  Effect on immobility in the FST, in words: numerically reduce immobility

## O=C1CCc2ccc(OCCCCN3CCN(c4cccc(Cl)c4Cl)CC3)cc2N1 [Aripiprazole]
Male C57Bl/6J mice [1]; 1 mg/kg alone
  DTO Mean: 113.9
  PCT Mean: 34.9%
Male C57Bl/6J mice [1]
  Effect on distance travelled in open arm / % time in open arm of EPM, in words: significantly decreased distance travelled in the open arm, but not % of time in the open arm

## O=c1ccc2ccc(OCCCCN3CCN(c4cccc5sccc45)CC3)cc2[nH]1 [Brexpiprazole]
Male C57Bl/6J mice [1]; .3 mg/kg alone
  DTO Mean: 131.6
  PCT Mean: 28.7%
Male C57Bl/6J mice [1]; 0.1 mg/kg
  Mean distance travelled in the open arm of the EPM: 160.10
Male C57Bl/6J mice [1]; 0.3 mg/kg
  Mean distance travelled in the open arm of the EPM: 204.70
Male C57Bl/6J mice [1]; 1 mg/kg
  Mean distance travelled in the open arm of the EPM: 93.70
Male BalbC/J mice; .3 mpk alone
  immobility time in the rodent forced swim test (FST), Mean: 239 s
Male BalbC/J mice; agent alone (Table 3)
  Effect on immobility in the forced swim test, in words: significantly increased immobility

## C[C@@H]([C@@H](O)c1ccc(O)cc1)N1CCC(O)(c2ccccc2)CC1 [CP101606]
Male C57Bl/6J mice [1]
  Reversal of 5-HT2A antagonist induced reductions in open arm measures of the EPM, in words: Pro-therapeutic effects

## CN(C)C(=O)N[C@H]1CC[C@H](CCN2CCN(c3cccc(Cl)c3Cl)CC2)CC1 [Cariprazine]
Male C57Bl/6J mice [1]; 0.03 mg/kg
  Mean distance travelled in the open arm of the EPM: 186.00
Male C57Bl/6J mice [1]; 0.1 mg/kg
  Mean distance travelled in the open arm of the EPM: 174.30
Male C57Bl/6J mice [1]; 1 mg/kg
  Mean distance travelled in the open arm of the EPM: 69.70

## O=C(O)[C@H]1CN(C/C=C/P(=O)(O)O)CCN1 [D-CPPene, D-(E)-4-(3-phosphonoprop-2-enyl)piperazine-2-carboxylic acid]
Male C57Bl/6J mice [1]
  Reversal of 5-HT2A antagonist induced reductions in open arm measures of the EPM, in words: Pro-therapeutic effects
Male BalbC/J mice; 0.03 mg/kg
  Mean immobility time in the rodent forced swim test (FST): 124.20
Male BalbC/J mice; 0.1 mg/kg
  Mean immobility time in the rodent forced swim test (FST): 153.40
Male BalbC/J mice; 0.3 mg/kg
  Mean immobility time in the rodent forced swim test (FST): 129.10
Male BalbC/J mice; 1.0 mg/kg
  Mean immobility time in the rodent forced swim test (FST): 156.80
Male BalbC/J mice; 3.0 mg/kg
  Mean immobility time in the rodent forced swim test (FST): 124.60
Male BalbC/J mice; 10 mg/kg
  Mean immobility time in the rodent forced swim test (FST): 141.20

## N#Cc1c[nH]c2c(C(=O)N3CCN(CCc4ccc(F)cc4)CC3)cccc12 [EMD281014]
Male C57Bl/6J mice [1]; 1 mg/kg
  Mean distance travelled in the open arm of the EPM: 111.00
Male C57Bl/6J mice [1]; 3 mg/kg
  Mean distance travelled in the open arm of the EPM: 42.70
Male C57Bl/6J mice [1]; 10 mg/kg
  Mean distance travelled in the open arm of the EPM: 44.80

## CNCCC(Oc1ccc(C(F)(F)F)cc1)c1ccccc1 (centres unmarked) [Fluoxetine]
Male C57Bl/6J mice [1]; 10 mg/kg
  Mean distance travelled in the open arm of the EPM: 216.70
Male C57Bl/6J mice [1]
  Distance travelled in the open arm relative to the vehicle, in words: no significant effects

## O=C(/C=C/c1c(C(=O)O)[nH]c2cc(Cl)cc(Cl)c12)Nc1ccccc1 [Gavestinel]
Male BalbC/J mice; 0.1 mg/kg
  Mean immobility time in the rodent forced swim test (FST): 136.10
Male BalbC/J mice; 0.3 mg/kg
  Mean immobility time in the rodent forced swim test (FST): 116.30
Male BalbC/J mice; 1.0 mg/kg
  Mean immobility time in the rodent forced swim test (FST): 109.60
Male BalbC/J mice; 3.0 mg/kg
  Mean immobility time in the rodent forced swim test (FST): 122.70
Male BalbC/J mice; 10 mg/kg
  Mean immobility time in the rodent forced swim test (FST): 111.40
Male BalbC/J mice; 30 mg/kg
  Mean immobility time in the rodent forced swim test (FST): 131.90
Male BalbC/J mice
  Effect on immobility in the FST, in words: numerically reduce immobility

## CN(C)CCCN1c2ccccc2CCc2ccccc21 [Imipramine]
Male C57Bl/6J mice [1]; 10 mg/kg
  Mean distance travelled in the open arm of the EPM: 235.00
Male C57Bl/6J mice [1]
  Distance travelled in the open arm relative to the vehicle, in words: no significant effects

## CCN(CC)C(=O)[C@@]1(c2ccccc2)C[C@H]1CN [Levomilnacipran]
Male C57Bl/6J mice [1]; 40 mg/kg
  Mean distance travelled in the open arm of the EPM: 237.90
Male C57Bl/6J mice [1]
  Distance travelled in the open arm relative to the vehicle, in words: no significant effects

## O=C1[C@@H]2[C@H]3CC[C@H](C3)[C@@H]2C(=O)N1C[C@@H]1CCCC[C@H]1CN1CCN(c2nsc3ccccc23)CC1 [Lurasidone]
Male C57Bl/6J mice [1]; .1 mg/kg alone
  DTO Mean: 172.9
  PCT Mean: 32.5%
Male C57Bl/6J mice [1]; .2 mg/kg alone
  DTO Mean: 120.8
  PCT Mean: 22.9%
Male C57Bl/6J mice [1]; .3 mg/kg alone
  DTO Mean: 134.2
  PCT Mean: 26.6%
Male BalbC/J mice; 1 mpk alone
  immobility time in the rodent forced swim test (FST), Mean: 157 s
Male BalbC/J mice; 3 mpk alone
  immobility time in the rodent forced swim test (FST), Mean: 169 s
Male BalbC/J mice; .2 mpk alone
  immobility time in the rodent forced swim test (FST), Mean: 146 s

## COc1cccc([C@H](O)C2CCN(CCc3ccc(F)cc3)CC2)c1OC [MDL100907]
Male C57Bl/6J mice [1]; .3 mg/kg alone
  Distance Traveled Open (DTO) Mean: 114.3
  Percent open (PCT) Mean: 19.2%
Male C57Bl/6J mice [1]
  Effect on distance travelled in open arm / % time in open arm of EPM, in words: significantly reduces both distance travelled in the open arm and % open arm activity
Male C57Bl/6J mice [2]
  Distance travelled in the open arm and % time in the open arm, in words: significantly reduced

## c1ccc(C2(N3CCCCC3)CCCCC2)cc1 [PCP]
Male C57Bl/6J mice [1]
  Reversal of 5-HT2A antagonist induced reductions in open arm measures of the EPM, in words: worsened performance relative to DCS
  Effect on open arm behavior in the EPM, in words: did not significantly affect open arm behavior
  Total distance travelled in the EPM, in words: reduced total distance travelled

## CC(C)COc1ccc(CNC(=O)N(Cc2ccc(F)cc2)C2CCN(C)CC2)cc1 [Pimavanserin]
Male C57Bl/6J mice [1]; 0.3 mg/kg
  Mean distance travelled in the open arm of the EPM: 150.20
Male C57Bl/6J mice [1]; 1 mg/kg
  Mean distance travelled in the open arm of the EPM: 204.10
Male C57Bl/6J mice [1]; 10 mg/kg
  Mean distance travelled in the open arm of the EPM: 66.50
Male C57Bl/6J mice [1]
  Distance travelled in the open arm relative to the vehicle, in words: significantly reduced

## OCCOCCN1CCN(C2=Nc3ccccc3Sc3ccccc32)CC1 [Quetiapine]
Male C57Bl/6J mice [1]; 30 mg/kg alone
  DTO Mean: 42.8
  PCT Mean: 9.0%

## Cc1nc2n(c(=O)c1CCN1CCC(c3noc4cc(F)ccc34)CC1)CCCC2 [Risperidone]
Male C57Bl/6J mice [1]; 1 mg/kg alone
  DTO Mean: 0.0
  PCT Mean: 0.0%
Male C57Bl/6J mice [1]; 1 mg/kg
  Mean distance travelled in the open arm of the EPM: 5.30

## CN(C)CCO/N=C(/C=C/c1ccc(O)cc1)c1ccccc1F [SR46349B]
Male C57Bl/6J mice [1]; 0.3 mg/kg
  Mean distance travelled in the open arm of the EPM: 127.10
Male C57Bl/6J mice [1]; 1 mg/kg
  Mean distance travelled in the open arm of the EPM: 98.00
Male C57Bl/6J mice [1]; 10 mg/kg
  Mean distance travelled in the open arm of the EPM: 105.90

## CN[C@H]1CC[C@@H](c2ccc(Cl)c(Cl)c2)c2ccccc21 [Sertraline]
Male BalbC/J mice; 20 mg/kg
  Mean immobility time in the rodent forced swim test (FST): 85.50

## COc1ccc(C(CN(C)C)C2(O)CCCCC2)cc1 (centres unmarked) [Venflaxine]
Male C57Bl/6J mice [1]; 40 mg/kg
  Mean distance travelled in the open arm of the EPM: 224.60

## Cc1ccc(Sc2ccccc2N2CCNCC2)c(C)c1 [Vortioxetine]
Male C57Bl/6J mice [1]; 10 mg/kg
  Mean distance travelled in the open arm of the EPM: 237.90
Male C57Bl/6J mice [1]
  Distance travelled in the open arm relative to the vehicle, in words: no significant effects

## O=C(c1ccc(F)cc1)C1CCN(CCn2c(=O)[nH]c3ccccc3c2=O)CC1 [ketanserin]
Male C57Bl/6J mice [2]
  Distance travelled in the open arm and % time in the open arm, in words: significantly reduced
